Laboratory results as given in US20040058357A1 (priority 2003, published 2004).

Experiments:
[1] = test system: hippocampal slices; type: cell-based, mice
[2] = test system: AChE; type: cell-based
[3] = test system: PC12 cells; type: cell-based
[4] = test system: AChE; conditions: rat, in vivo
[5] = test system: AChE; conditions: rat, in vivo; remark: listed apart in the source
[6] = test system: AChE-S mRNA; conditions: rat, in vivo

Compound: NC(CCCP(=O)(O)O)C(=O)O (stereo not drawn) [APV, aminophosphonopentanoic acid]
- Effect on the evoked pfp [1]: blocked

Compound: CN1[C@@H]2CC[C@H]1C[C@@H](OC(=O)C(CO)c1ccccc1)C2 (stereo partly drawn) [atropine]
- Block of the evoked response [1]: over 90%
- Reversal of the physostigmine-induced response [1]: 70%

Compound: C[C@]12C[C@H](O)[C@H]3[C@@H](CCC4=CC(=O)CC[C@@]43C)[C@@H]1CC[C@@H]2C(=O)CO [corticosterone]
- Increase in acetylthiocholine hydrolytic capacity of AChE [2]: 25±14%
- Increase in labeling intensities of both AChE splice variants versus vehicle-treated cells [3]: 30-50%

Compound: CNC(=O)Oc1ccc2c(c1)[C@]1(C)CCN(C)[C@@H]1N2C [physostigmine]
- Increase in amplitude of evoked population spikes, mean [1]: 42±15%
- Increase in amplitude of evoked population spikes, range [1]: 20-80%
- Increase over baseline in population spike amplitudes relative to non-stressed animals [1]: 12 fold

Compound: CN1CCN(CC(=O)N2c3ccccc3C(=O)Nc3cccnc32)CC1 [pirenzepine]
- DFP-induced increase of G1:G4 ratio under co-injection [4]: prevented
- Cortical DFP-induced decrease in AChE activity under pirenzepine pre-treatment [5]: 44 % of control
- Hippocampal regaining of AChE activity after DFP under pirenzepine pre-treatment [5]: 63 % of control
- AChE-S elevation by vehicle injection-induced stress under muscarinic blocker [6]: 39.1±5.2 AFU
- AChE-S mRNA labeling, change in words [6]: somewhat lower increase
- DFP-induced AChE-S expression [6]: 30.4±4.9 AFU
- Effect on AChE-S or -R levels after 24 hours [6]: did not show any effect

Compound: CN1[C@@H]2C[C@@H](OC(=O)[C@H](CO)c3ccccc3)C[C@H]1[C@@H]1O[C@@H]12 [scopolamine]
- DFP-induced increase of G1:G4 ratio under co-injection [4]: prevented
- Effect on the DFP-induced decrease in AChE activities [5]: no significant effect
- AChE-S elevation by vehicle injection-induced stress under muscarinic blocker [6]: 39.6±3.3 AFU
- AChE-S mRNA labeling, change in words [6]: conspicuous increases
- DFP-induced AChE-S expression [6]: 35.1±10 AFU
- Effect on AChE-S or -R levels after 24 hours [6]: did not show any effect
